# Assay results taken from patent US20070111988A1, “Selective estrogen receptor modulators” (ELI LILLY AND COMPANY, priority 2004, published 2007).
# Key:
# [1] = test system: mature F344 female rats; test: 10-Day Rat Hormone (Ovarian Stimulation) Screen; format: in vivo; details: oral gavage 10 days, serum about 2 hours after the 10th dose, RIA
# Method: 10-Day Rat Hormone (Ovarian Stimulation) Screen: An initial, first screen for ovarian toxicity is conducted using a 10-day rat hormone study to measure estradiol and luteinizing hormone levels after compound administration. This screen is conducted by administering compound by oral gavage for 10 days to mature (9-10 week old) F344 female rats. Trunk blood is collected by rapid decapitation for evaluation of LH and estradiol levels approximately 2 hours after the 10th dose. Serum, obtained by centrifugation, is removed and stored frozen below −60° C. until assayed. Serum levels of LH and estradiol are measured using radioimmunoassay (RIA) methods.
# Rat LH primary antibody and reference preparations (rat LH:RP-3) are obtained from Dr. A. F. Parlow, Director, Pituitary Hormones and Antisera Center, Harbor-UCLA Medical Center, Torrance, Calif. The LH assay upper limits of detection are 30 ng/mL and the lower limits of detection are 0.1 ng/mL for the 100 μl samples.
# E2 Clinical Assays. DiaSorin s.r.l., Saluggia (Vercelli), Italy. The upper limit of detection is 1000 pg/mL and the lower limit of detection is 5 pg/mL.
# [2] = test system: Ishikawa human endometrial tumor cells; test: Ishikawa Cell Proliferation Assay, agonist mode (alkaline phosphatase readout); format: cell-based; details: for stimulation compared with tamoxifen: compound alone; for Emax: Homo sapiens, Ishikawa, versus the response to tamoxifen, read-out: relative % efficacy
# Method: (§1) Ishikawa Cell Proliferation Assay: This assay measures cell proliferation (using an alkaline phosphatase readout) in both an agonist mode in the presence of a compound of the present invention alone, and in an antagonist mode in which the ability of a compound of the present invention to block estradiol stimulation of growth is measured.
# (§2) Ishikawa human endometrial tumor cells are maintained in MEM (minimum essential medium, with Earle's salts and L-Glutamine, Gibco BRL, Gaithersburg, Md.), supplemented with 10% fetal bovine serum (FBS) (V/V), (Gibco BRL). One day prior to assay, growth media is changed to assay medium, DMEM/F-12 (3:1) (Dulbecco's Modified Eagle Medium:Nutrient Mixture F-12, 3:1 Mixture, phenol red-free, Gibco BRL) supplemented with 5% dextran coated charcoal stripped fetal bovine serum (DCC-FBS) (Hyclone, Logen, Utah), L-Glutamine (2 mM), MEM sodium pyruvate (1 mM), HEPES (N-[2-hydroxyethyl]piperazine-N′-[2-ethanesulfonic acid] 2 mM) all from Gibco BRL). After an overnight incubation, Ishikawa cells are rinsed with Dulbecco's Phosphate Buffered Saline (1×) (D-PBS) without Ca^+2 and Mg^+2 (Gibco BRL), and trypsinized by a 3 minute incubation with 0.25% Trypsin/EDTA, phenol red-free (Gibco BRL). Cells are resuspended in assay medium and adjusted to 250,000 cells/mL. Approximately 25,000 cells in a 100 ul media are added to flat-bottom 96 wells microculture plates (Costar 3596) and incubated at 37° C. in a 5% CO2 humidified incubator for 24 hours. The next day, serial dilutions of compounds are prepared in assay medium (at 6 times the final concentration in the assay). The assay is run in dual mode, agonist and antagonist modes.
# For the agonist mode, plates receive 25 μl/well of assay medium followed by 25 μl/well of a diluted compound of the present invention (at 6× the final concentrations). For the antagonist mode, plates receive 25 μl/well of 6 nM E2 (β-Estradiol, Sigma, St. Louis, Mo.) followed by 25 μl/well of a diluted compound of the present invention (at 6× the final concentrations). After an additional 48-hour incubation at 37° C. in a 5% CO2 humidified incubator, media is aspirated from wells and 100 μl fresh assay medium is added to each microculture. Serial dilutions of compounds are prepared and added to the cells as described above. After an additional 72 hour incubation at 37° C. in a 5% CO2 humidified incubator, the assay is quenched by removing media and rinsing plates twice in Dulbecco's Phosphate Buffered Saline (1×) (D-PBS) (Gibco BRL). The plates are dried for 5 minutes and frozen at −70° C. for at least 1 hour. The plates are then removed from the freezer and allowed to thaw at room temperature. To each well, 100 μl of 1-Step™ PNPP (Pierce Chemical Company, Rockford, Ill.) is added. After a 20-minute incubation, plates are read on a spectophotometer at 405 nm.
# (§3) The data is fitted to a linear interpolation to derive EC50 (for agonist mode) or IC50 (for antagonist mode) values. For the antagonist mode, a % efficacy for each compound is calculated versus E2 (1 nM) alone. For the agonist mode, a % efficacy for each compound is calculated versus the response to tamoxifen.
# [3] = test system: estrogenic stimulation of the uterus in immature female rats; test: 3-Day Rat Uterus Antagonist Assay; format: in vivo; details: 3 days, with E2 0.1 mg/kg; for inhibition of the estrogen-induced response (uterine weight/body weight ratio): 1.0 mg/kg oral; for % antagonism / ED50: oral
# Text: 3-Day Rat Uterus Antagonist Assay: This model for uterine antagonism utilizes immature (3 week old) female rats that are highly sensitive to estrogenic stimulation of the uterus given that their circulating estrogen levels are prepubertal. The uteri from immature rats are fully responsive to exogenous estrogen, yet are quiescent in the absence of exogenous estrogen. Administration of exogenous estrogen to immature rats produces a reliable elevation of uterine weight, which can be used to study uterine antagonist effects. The rats are treated with both estradiol and 4 different concentrations of a compound of the present invention for 3 days and then uterine wet weights are measured.
# Nineteen to twenty-one day old (or 45-50 g) female rats are orally treated with E2 (0.1 mg/kg, a maximal stimulatory estrogenic stimulus for reliably increasing uterine weight) and 10, 1.0, 0.1 and 0.01 mg/kg test compound for 3 days, 6 rats per group. Test compounds are dissolved in 20% β-hydroxycyclodextrin and administered by oral gavage in a volume of 0.2 mL daily (15 min. prior to the ethynyl estradiol gavage). A vehicle control, E2 alone and E2+raloxifene are also done as controls. The animals are fasted overnight following the final dose. On the following morning, the animals are weighed, then euthanized (by carbon dioxide asphyxiation) and the uteri rapidly collected (via a mid-line ventral incision) and weighed.
# Uterine weight/body weight ratios (UWR) are calculated for each animal. The percent inhibition of the estrogen-induced response is then calculated by the following formula: percent inhibition=100×(UWRestrogen−UWRtest compound/UWRestrogen−UWRcontrol). ED50 values are derived from a semi-log regression analysis of the linear aspect of the dose response curve. Both the UWR data and the percent inhibition data are statistically analyzed by one way analysis of variance (ANOVA) with post-hoc testing by Fisher's PLSD when indicated by a p≦0.05. Statistical analyses are performed using the Statview® 4.0 software package.
# [4] = test system: uterus of mature, ovariectomized rats; test: 4-Day OVX Rat Uterine Agonist Assay; format: in vivo; details: 4 days of treatment, 3 doses
# Method: Seventy-five day old rats are ovariectomized and treatment is started 14 days later when circulating estradiol levels have reached minimal levels. After 4 days of treatment with 3 doses of a compound of the present invention, (6 rats per group) body weight, uterine wet weight and uterine eosinophil peroxidase (EPO) activity are measured. Cholesterol levels are also measured to compare relative ability to lower cholesterol with other SERMs. If there is any question of uterine stimulation, histological examination will determine epithelial cell height.
# [5] = test system: Ishikawa human endometrial tumor cells; test: Ishikawa Cell Proliferation Assay, antagonist mode (block of estradiol stimulation); format: cell-based; details: for IC50: 1 nM E2; for Emax: versus E2 (1 nM) alone, read-out: % efficacy
# Method: as §1, §2
# For the agonist mode, plates receive 25 μl/well of assay medium followed by 25 μl/well of a diluted compound of the present invention (at 6× the final concentrations). For the antagonist mode, plates receive 25 μl/well of 6 nM E2 (β-Estradiol, Sigma, St. Louis, Mo.) followed by 25 μl/well of a diluted compound of the present invention (at 6× the final concentrations). After an additional 48-hour incubation at 37° C. in a 5% CO2 humidified incubator, media is aspirated from wells and 100 μl fresh assay medium is added to each microculture. Serial dilutions of compounds are prepared and added to the cells as described above. […] After a 20-minute incubation, plates are read on a spectophotometer at 405 nm.
# as §3
smiles,measurement,setting,value
"OCc1ccc2c(c1)OC(c1ccc(OCCN3CCCCC3)cc1)c1c-2ccc2cc(O)ccc12 (racemic) [Example 37, 8-Hydroxymethyl-5-[4-(2-piperidin-1-yl-ethoxy)-phenyl]-5H-6-oxa-chrysen-2-ol]",circulating LH levels,[1],did not significantly elevate
same,circulating estradiol levels,[1],did not significantly elevate
same,stimulation compared with tamoxifen,[2],less stimulatory than tamoxifen
same,inhibition of the estrogen-induced response (uterine weight/body weight ratio),[3],inhibit the estrogen-induced response
same,% antagonism,[3],89%
same,ED50,[3],0.06 mpk
"Cl.NC(=O)c1cccc(-c2ccc3cc(O)ccc3c2Oc2ccc(OCCN3CCCCC3)cc2)c1 [Example 1, 3-{6-Hydroxy-1-[4-(2-piperidin-1-yl-ethoxy)-phenoxy]-naphthalen-2-yl}-benzamide hydrochloride]",stimulation compared with tamoxifen,[2],less stimulatory than tamoxifen
"COC(=O)c1cccc(-c2ccc3cc(O)ccc3c2Oc2ccc(OCCN3CCCCC3)cc2)c1.Cl [Example 2, 3-{6-Hydroxy-1-[4-(2-piperidin-1-yl-ethoxy)-phenoxy]-naphthalen-2-yl}-benzoic acid methyl ester hydrochloride]",stimulation compared with tamoxifen,[2],less stimulatory than tamoxifen
"O=C(O)C(F)(F)F.O=C(O)c1cccc(-c2ccc3cc(O)ccc3c2Oc2ccc(OCCN3CCCCC3)cc2)c1 [Example 3, 3-{6-Hydroxy-1-[4-(2-piperidin-1-yl-ethoxy)-phenoxy]-naphthalen-2-yl}-benzoic acid trifluoroacetate]",stimulation compared with tamoxifen,[2],less stimulatory than tamoxifen
"COC(=O)c1ccc(-c2ccc3cc(O)ccc3c2Oc2ccc(OCCN3CCCCC3)cc2)cc1.Cl [Example 5, 4-{6-Hydroxy-1-[4-(2-piperidin-1-yl-ethoxy)-phenoxy]-naphthalen-2-yl}-benzoic acid methyl ester hydrochloride]",circulating LH levels,[1],did not significantly elevate
same,circulating estradiol levels,[1],did not significantly elevate
same,stimulation compared with tamoxifen,[2],less stimulatory than tamoxifen
same,uterine eosinophil peroxidase (EPO) activity,[4],did not cause any dose-related statistically significant increase in EPO activity
same,inhibition of the estrogen-induced response (uterine weight/body weight ratio),[3],inhibit the estrogen-induced response
"Cl.O=C(O)c1ccc(-c2ccc3cc(O)ccc3c2Oc2ccc(OCCN3CCCCC3)cc2)cc1 [Example 6, 4-{6-Hydroxy-1-[4-(2-piperidin-1-yl-ethoxy)-phenoxy]-naphthalen-2-yl}-benzoic acid hydrochloride]",stimulation compared with tamoxifen,[2],less stimulatory than tamoxifen
"CN(C)C(=O)c1cccc(-c2ccc3cc(O)ccc3c2Oc2ccc(OCCN3CCCCC3)cc2)c1.Cl [Example 8, 3-{6-Hydroxy-1-[4-(2-piperidin-1-yl-ethoxy)-phenoxy]-naphthalen-2-yl}-N,N-dimethylbenzamide, hydrochloride salt]",Emax,[2],15%
same,stimulation compared with tamoxifen,[2],less stimulatory than tamoxifen
same,inhibition of the estrogen-induced response (uterine weight/body weight ratio),[3],inhibit the estrogen-induced response
same,IC50,[5],9 nM
same,Emax,[5],95%
"Cl.O=C1NCc2cc(-c3ccc4cc(O)ccc4c3Oc3ccc(OCCN4CCCCC4)cc3)ccc21 [Example 11, 5-{6-Hydroxy-1-[4-(2-piperidin-1-yl-ethoxy)-phenoxy]-naphthalen-2-yl}-2,3-dihydro-isoindol-1-one Hydrochloride]",stimulation compared with tamoxifen,[2],less stimulatory than tamoxifen
same,inhibition of the estrogen-induced response (uterine weight/body weight ratio),[3],inhibit the estrogen-induced response
same,% antagonism,[3],79%
same,ED50,[3],0.3 mpk
"O=C(O)C(F)(F)F.O=C(O)c1cccc2c1OC(c1ccc(OCCN3CCCCC3)cc1)c1c-2ccc2cc(O)ccc12 (centres unmarked) [Example 35, 2-Hydroxy-5-[4-(2-piperidin-1-yl-ethoxy)-phenyl]-5H-6-oxa-chrysene-7-carboxylic acid trifluoroacetate]",Emax,[2],25%
same,stimulation compared with tamoxifen,[2],less stimulatory than tamoxifen
same,IC50,[5],36 nM
same,Emax,[5],92%
"COc1ccc2c3c(ccc2c1)-c1ccc(CO)cc1OC3c1ccc(OCCN2CCCCC2)cc1 (centres unmarked) [Example 36, {2-Methoxy-5-[4-(2-piperidin-1-yl-ethoxy)-phenyl]-5H-6-oxa-chrysen-8-yl}-methanol]",stimulation compared with tamoxifen,[2],less stimulatory than tamoxifen
"OCc1ccc2c(c1)OC(c1ccc(OCCN3CCCCC3)cc1)c1c-2ccc2cc(O)ccc12 (centres unmarked) [Example 39, 8-Hydroxymethyl-5-[4-(2-piperidin-1-yl-ethoxy)-phenyl]-5H-6-oxa-chrysen-2-ol]",stimulation compared with tamoxifen,[2],less stimulatory than tamoxifen
"Cl.OCc1ccc(-c2ccc3cc(O)ccc3c2Oc2ccc(OCCN3CCCCC3)cc2)cc1 [Example 41, 6-(4-Hydroxymethyl-phenyl)-5-[4-(2-piperidin-1-yl-ethoxy)-phenoxy]-naphthalen-2-ol, hydrochloride]",stimulation compared with tamoxifen,[2],less stimulatory than tamoxifen
COc1ccc2c(Oc3ccc(OCCN4CCCCC4)cc3)c(-c3ccc(C(C)(C)O)cc3)ccc2c1 [Example 44],stimulation compared with tamoxifen,[2],less stimulatory than tamoxifen
